Experimental data published in patent US6469055B2, “Compositions and methods for treatment of neurological disorders and neurodegenerative diseases” (Massachusetts Institute of Technology, priority 1996, dated 2002).
“Also recorded” adds a separate entry of the source. Structures can show the parent of a compound that is named as a salt.

Tests used:
[1] = tested on: APP holoprotein; assay: Cell-associated APP (APP holoprotein), Western blot, cultured cortical astrocytes; details: for effect on cell-associated APP (APP holoprotein): PMA 5 μM or DNF 100 μM; for effect on basal APP holoprotein: p>0.05; for levels of cellular and amyloidogenic APP holoprotein: aspirin or resveratrol, nano- or micromolar range, cultured astrocytes or neurons
Procedure: Astrocytes are isolated from cortices from postnatal rats. […] In brief, dissected cortices were dissociated by trypsinization and trituration through a flame-polished Pasteur pipette. Cells were plated onto poly-L-lysine coated 35- or 100 mm culture dishes at densities of about 10-25 cells/mm^2. […] Media are changed twice weekly. […] Pharmacological manipulations are performed in serum-free media on 7-14 DIV confluent astrocytes.
To detect cell-associated protein (APP or GFAP), astrocytes from 35 mm dishes are scraped in lysis buffer (60 mM Tris/HCl, 4% SDS, 20% glycerol, 1 mM dithiothreitol), ultrasonicated and boiled for 5 min. The total amount of cell protein per dish, estimated using the bicinchoninic acid assay, is not altered by pharmacological treatments. Bromphenol blue (0.1%) is added to each sample and equal amounts of protein (˜75 mg/lane) are loaded on 10% SDS-polyacrylamide gels.
(§2) The amount of media or cell protein loaded for sodium dodecyl sulfate-polyacrylamide gel electrophoresis (10-20% SDS PAGE; Bio-Rad) was normalized for the amount of protein per sample. […] After 2×10 min rinses in TBST, the membranes were incubated in TBST containing an appropriate antibody. Monoclonal antibodies 22C11 and GFAP (both from Boehringer-Mannheim) were used to detect the N-terminus of APP and glial fibrillary acidic protein respectively; antisera R37 and R98 (gifts of Dr. F. Kametani, Tokyo Institute of Psychiatry) were used to detected the C-terminus and KPI motifs of APP respectively; antiserum C8 (gift of Dr. D. Selkoe, Women's Hospital, Harvard Medical School, Cambridge, Mass.) was used to detect the C-terminus of APP.
After an overnight incubation, membranes were rinsed in TBST before being treated for 1h with a peroxidase-linked secondary antibody. After several rinses in TBST, protein bands were visualized on Kodak X-AR films by an enhanced chemiluminescence method (Amersham). Optical densities of the protein bands were quantitated by laser scanning densitometry (LKB, Bromma, Sweden), and normalized to the densities of those bands generated under control conditions.

[2] = tested on: secreted APP (APPs); assay: APPs secretion into the media of cultured cortical astrocytes, Western blot; assay type: cell-based, rat; details: for APPs secretion relative to untreated cells: PMA 5 μM or DNF 100 μM, 1 hour, mAb22C11; for APPs secretion, to that of untreated cells: PMA 5 μM, dexnorfenfluramine 100 μM
Procedure: Astrocytes are isolated from cortices from postnatal rats. […] Media are changed twice weekly.
To detect secreted APP, culture media was collected after drug treatments and phenylmethylsulfonyl fluoride was added to a final concentration of 2 mM. The media samples were then applied to Sephadex PD-10 desalting columns (Pharmacia) and eluted with distilled water. Column eluates were frozen and dried by vacuum centrifugation. The lyophilized proteins were reconstituted in 25 μL water followed by 25 μL of 2X Laemmli gel loading buffer, and boiled for 5 min.
(§1) Assays of PI hydrolysis are conducted as previously reported. Also, measurements of APPs are conducted as previously reported.

[3] = tested on: PI hydrolysis; assay: PI hydrolysis in cultured astrocytes; assay type: cell-based, rat
Procedure: as §1

[4] = tested on: APP mRNA; assay: APP mRNA, Northern blot, cultured cortical astrocytes; details: for effect on the increase in APP mRNA stimulated by PG E2: EGTA or KN-93 100 μM, PG E2 10 μM; for APP mRNA levels versus untreated cells / APP mRNA, of untreated cells: isoproterenol 50 μM; for APP mRNA levels versus untreated cells: Northern blot
Procedure: Pharmacological manipulations are performed in serum-free media on 7-14 DIV confluent astrocytes.
Total RNA from astrocytes grown on 100 mm dishes is extracted by the acid guanidium thiocyanate-phenol-chloroform method. […] In brief, the medium was aspirated and the cells were scraped in 1 mL of TRI Reagent. After incubation for 15 min at room temperature, 0.2 ml chloroform was added, mixed vigorously with TRI Reagent and the mixture was stored for another 15 min at room temperature. After centrifugation at 12,000 g for 15 min, 0.5 ml isopropanol was added to the aqueous phase of the mixture to precipitate RNA. The RNA pellet collected by centrifugation (12,000 g, 15 min at 4° C.) was washed with 70% ethanol. once and solubilized in an appropriate amount of Formazol (Molecular Research Center, Cincinnati, Ohio). […] RNA was blotted onto Hybond polyvinyl membranes by overnight capillary transfer and fixed onto the membranes by UV light illumination. […] Membranes were dried and exposed to Kodak X-ray film for 24-48 h with an Amersham enhancer sheet. The relative amounts of mRNA obtained by hybridization were estimated using densitometric analysis of autoradiographs. The levels of APP mRNA were normalized to the amounts of G3PDH mRNA and expressed as a ratio to the levels of untreated, control cells.

[5] = tested on: cellular cAMP levels; assay: cAMP assay in cultured astrocytes; assay type: cell-based, rat; details: for effect on cellular cAMP levels stimulated by PG E2: EGTA or KN-93, PG E2 10 μM
Procedure: In brief, after aspirating the medium and rinsing twice with 1 ml ice cold PBS, the cells were scraped in 0.8 ml ice cold ethanol and sonicated. […] After resuspension in 120 μl Tris/EDTA buffer, two duplicate samples of 50 μl each were mixed with the binding protein, [8-^3H] adenosine 3′, 5′-cyclic phosphate tracer and incubated at 2-4° C. for 2 h. A charcoal suspension (100 μl) was added to the samples before centrifugation and 200 μl of the supernatant were removed for. scintillation counting. The amount of cyclic AMP (pmol/mg protein) was estimated by comparing to known standards, and normalized to the amounts of whole cell protein as determined by the bicinchoninic acid assay (Sigma).

[6] = tested on: APP synthesis; assay: APP synthesis (APP mRNA and holoprotein) in cultured cortical astrocytes; assay type: cell-based, rat
[7] = tested on: astrocytes; assay: Process formation of cultured astrocytes; assay type: cell-based, rat
[8] = tested on: glial fibrillary acidic protein (GFAP); assay: GFAP protein in cultured astrocytes, Western blot; assay type: cell-based, rat
Procedure: To detect cell-associated protein (APP or GFAP), astrocytes from 35 mm dishes are scraped in lysis buffer (60 mM Tris/HCl, 4% SDS, 20% glycerol, 1 mM dithiothreitol), ultrasonicated and boiled for 5 min. […] Bromphenol blue (0.1%) is added to each sample and equal amounts of protein (˜75 mg/lane) are loaded on 10% SDS-polyacrylamide gels.
as §2
After an overnight incubation, membranes were rinsed in TBST before being treated for 1h with a peroxidase-linked secondary antibody. After several rinses in TBST, protein bands were visualized on Kodak X-AR films by an enhanced chemiluminescence method (Amersham). […]

[9] = tested on: APP holoprotein; assay: Brain APP holoprotein in rats injected with p-chloroamphetamine (PCA) with or without aspirin; assay type: in vivo, rat; details: for brain APP holoprotein relative to control levels: rats, injections of aspirin alone
Source text: Neuronal injury can stimulate prostaglandin production., and thereby stimulate APP overexpression. We injected rats with para-chloroamphetamine (PCA), a neurotoxin which causes a loss of serotoninergic terminals in the brain.

[10] = DFU or DFP 10^-9-10^-3 M, 1 h, cultured astrocytes
[11] = PMA 5 μM or dexnorfenfluramine 100 μM
[12] = EGTA or KN-93 100 μM, PG E2 10 μM, 24 h
[13] = aspirin or resveratrol, 1 h, nano- or micromolar range, cultured astrocytes or neurons
[14] = propranolol 50 μM with NE 50 μM

CC1(C)OC(=O)C(c2cccc(F)c2)=C1c1ccc(S(C)(=O)=O)cc1 [DFU, 5,5-dimethyl-3-(3-fluorophenyl)-4-(4-methylsulphonyl)phenyl-2(5H)-furanone]
levels of cellular APP holoprotein [1, 10]: decreases | secretion of soluble APPs [2, 10]: increases; also recorded: promotes

C[C@H](N)Cc1cccc(C(F)(F)F)c1 [DNF, dexnorfenfluramine hydrochloride]
PI hydrolysis relative to untreated astrocytes ([3]; dexnorfenfluramine 100 μM, p<0.05): ~2.6 fold | effect on cell-associated APP (APP holoprotein) ([1]; 24 h, hydrochloride): no effect | effect on cell-associated APP (APP holoprotein) ([1]; 24 h, listed as dexnorfenfluramine, hydrochloride): does not increase | effect on APP mRNA [4, 11]: does not increase | APPs secretion relative to untreated cells [2]: significantly increases | APPs secretion, to that of untreated cells [2]: ~2.2 fold

O=C(O)CN(CCOCCOCCN(CC(=O)O)CC(=O)O)CC(=O)O [EGTA]
effect on basal cAMP levels ([5]; EGTA or KN-93 100 μM alone): no significant effect | effect on cellular cAMP levels stimulated by PG E2 [5]: Neither EGTA nor KN-93 had a significant effect | effect on basal APP holoprotein ([1]; EGTA or KN-93 100 μM alone): no significant effect | effect on the increase in APP holoprotein stimulated by PG E2 [1, 12]: significantly inhibited | effect on the increase in APP mRNA stimulated by PG E2 ([4]; 24 h): significantly inhibited

C=CC[C@@H]1/C=C(\C)C[C@H](C)C[C@H](OC)[C@H]2O[C@@](O)(C(=O)C(=O)N3CCCC[C@H]3C(=O)O[C@H](/C(C)=C/[C@@H]3CC[C@@H](O)[C@H](OC)C3)[C@H](C)[C@@H](O)CC1=O)[C@H](C)C[C@@H]2OC [FK-506]
effect on basal cAMP levels ([5]; cyclosporin A or FK-506 (50 μM) alone): no significant effect | effect on basal APP holoprotein ([1]; cyclosporin A or FK-506 50 μM alone): no significant effect

NCCNS(=O)(=O)c1cccc2cnccc12 [H9]
effect on APP synthesis [6]: decrease or inhibit

Cl.Cl.O=S(=O)(NCCNC/C=C/c1ccc(Br)cc1)c1cccc2cnccc12 [H-89, H-89 dihydrochloride]
effect on the increase in APP holoprotein stimulated by PG E2 ([1]; H-89 100 μM, PG E2 10 μM, 24 h): completely abolished | effect on PG E2-stimulated APP mRNA production ([4]; H-89 dihydrochloride): blocked

COc1ccc(S(=O)(=O)N(CCO)c2ccccc2CN(C)CC=Cc2ccc(Cl)cc2)cc1.O=P(O)(O)O [KN-93, N-[2-[[[3-(4′-chlorophenyl)-2-propenyl]methylamino]methyl]phenyl]-N-(2-hydroxyethyl)-4′-methoxy-benzenesulfonamide phosphate]
effect on basal cAMP levels ([5]; EGTA or KN-93 100 μM alone): no significant effect | effect on cellular cAMP levels stimulated by PG E2 [5]: Neither EGTA nor KN-93 had a significant effect | effect on basal APP holoprotein ([1]; EGTA or KN-93 100 μM alone): no significant effect | effect on the increase in APP holoprotein stimulated by PG E2 [1, 12]: significantly inhibited | effect on the increase in APP mRNA stimulated by PG E2 ([4]; 24 h): significantly inhibited

NC[C@H](O)c1ccc(O)c(O)c1 [NE, norepinephrine]
PI hydrolysis ([3]; NE 50 μM, 1 h): significantly increased | cAMP formation ([5]; NE 50 μM, 1 h): significantly increased | process formation in astrocytes [7]: increase | APP holoprotein in cell lysates, of that seen in untreated cells ([1]; 8Br-cAMP or NE, antibodies 22C11 and R37): 200% | amount of cell-associated APP holoprotein relative to untreated cells ([1]; NE 50 μM, about 24 h, Western blot): ~1.7 fold | cell-associated APP relative to untreated control cells ([1]; NE 50 μM, mAb22C11, p<0.05): significantly more | APP holoprotein level versus NE concentration ([1]; NE 50-400 μM): do not increase linearly | glial fibrillary acidic protein immunoreactivity ([8]; 8Br-cAMP or NE): increase | APP mRNA levels versus untreated cells ([4]; 24 h, NE 50 or 100 μM): about 1.7 fold | APP mRNA level versus NE concentration ([4]; NE 50-400 μM): do not increase linearly | APP mRNA, of untreated cells ([4]; NE 50 or 100 μM): 180%

CCCCC[C@H](O)/C=C/[C@H]1[C@H](O)CC(=O)[C@@H]1C/C=C\CCCC(=O)O [PG E2, prostaglandin E2]
cellular cAMP levels compared to untreated cells ([5]; 1 μg PG E2 (so in the source)): 27 fold | cellular cAMP levels compared to untreated cells ([5]; 10 μg PG E2 (so in the source)): 106 fold | cellular cAMP levels compared to untreated cells ([5]; 100 μg PG E2 (so in the source)): 227 fold | cAMP production ([5]; PG E2 0.1 μM): did not stimulate | cAMP versus PG E2 concentration ([5]; PG E2 1, 10 or 100 μM): Concentration-dependent elevations | effect on APP synthesis, shorter treatment ([6]; PG E2 10 μM, 6 or 12 h): did not reliably increase | process formation in astrocytes [7]: induced | effect on APP holoprotein ([1]; PG E2 0.1 μM): did not significantly alter; also recorded: not 0.1 μM PG E2 | cellular APP holoprotein, of untreated control cells ([1]; PG E2 1 μM, 24 h): 1.4 fold | cellular APP holoprotein, of untreated control cells ([1]; PG E2 10 μM, 24 h): 1.9 fold | cellular APP holoprotein, of untreated control cells ([1]; PG E2 100 μM, 24 h): 2.3 fold | effect on APP holoprotein ([1]; PG E2 1, 10 or 100 μM, 24 h): stimulated increases | KPI-containing APP isoforms ([1]; PG E2 treatment, antiserum R98): increases | levels of GFAP ([8]; PG E2 treatment): increased | effect on APP mRNA ([4]; PG E2 0.1 μM): did not significantly alter; also recorded: not 0.1 μM PG E2 | astrocytic APP mRNA relative to untreated cells ([4]; PG E2 1, 10 or 100 μM, 24 h): significantly increased; also recorded: stimulated increases | APP secreted in the media ([2]; PG E2 1, 10 or 100 μM, 24 h, mAb 22C11, R37 or C8): increased | APP holoprotein (~130 kD) in the media ([2]; PG E2, 24 h, antisera C8): increased amounts

CCCCCCCCCCCCCC(=O)O[C@@H]1[C@@H](C)[C@@]2(O)[C@@H](C=C(CO)C[C@]3(O)C(=O)C(C)=C[C@@H]23)[C@@H]2C(C)(C)[C@]12OC(C)=O [PMA, phorbol 12-myristate 13-acetate]
effect on cell-associated APP (APP holoprotein) ([1]; 24 h): no effect | effect on cell-associated APP (APP holoprotein) ([1]; 24 h, listed as phorbol 12-myristate 13-acetate): does not increase | effect on APP mRNA [4, 11]: does not increase | APPs secretion relative to untreated cells [2]: significantly increases | APPs secretion, to that of untreated cells [2]: ~3.0 fold

CCN(CC)CC.Nc1ncnc2c1ncn2[C@@H]1O[C@@H]2COP(O)(=S)O[C@H]2[C@H]1O (stereo partly shown) [Sp-cAMP triethylamine]
cellular APP holoprotein compared to untreated cells ([1]; Sp-cAMP triethylamine 50 μM, 24 h, antiserum R98): 1.6 fold | cellular APP holoprotein compared to untreated cells ([1]; Sp-cAMP triethylamine 100 μM, 24 h, antiserum R98): 1.9 fold | cellular APP holoprotein compared to untreated cells ([1]; Sp-cAMP triethylamine 150 μM, 24 h, antiserum R98): 2.2 fold | effect on astrocytic APP holoprotein ([1]; Sp-cAMP triethylamine in the absence of PG E2): sufficient to stimulate increases

Cc1c(C(=O)c2cccc3ccccc23)c2cccc3c2n1[C@H](CN1CCOCC1)CO3 [Win55212]
effect on APP synthesis [6]: decrease or inhibit

CC(=O)Oc1ccccc1C(=O)O [aspirin]
levels of cellular and amyloidogenic APP holoprotein ([1]; 1 h): decreased levels | levels of cellular and amyloidogenic APP holoprotein ([1]; 1 h, listed as Aspirin): decreases | secretion of soluble APPs [2, 13]: increase | secretion of soluble APPs ([2]; aspirin or resveratrol, 1 h, nano- or micromolar range, cultured astrocytes or neurons, listed as Aspirin): promotes | APP holoprotein levels versus uninjected control rats / effect on the PCA-induced increase ([9]; rats injected with both aspirin and PCA): did not differ; also recorded: attenuated | brain APP holoprotein relative to control levels [9]: significant decrease | brain APP holoprotein relative to control levels ([9]; listed as Aspirin): small, but significant decrease

CC(C)NCC(O)c1ccc(O)c(O)c1 (stereo not shown) [isoproterenol]
APP mRNA levels versus untreated cells ([4]; 24 h, NE 50 or 100 μM): about 1.6 fold | APP mRNA, of untreated cells ([4]; NE 50 or 100 μM): 180% | effect on APP mRNA levels above controls ([4]; about 24 h, NE 50 or 100 μM, Iso 50 μM, 8Br-cAMP […] μM): mimicked

CN1CCCC1c1cccnc1.O=C(O)C(O)C(O)C(=O)O.O=C(O)C(O)C(O)C(=O)O (stereo not shown) [nicotine ditartrate]
astrocytic APP holoprotein relative to untreated cells ([1]; nicotine ditartrate 1, 10 or 100 μM, 24 h, p<0.05): significantly increased | APP secreted in the media ([2]; nicotine ditartrate 1, 10 or 100 μM, 1 h): decreased

CC(C)NCC(O)COc1cccc2ccccc12 (stereo not shown) [propranolol]
effect on the NE-induced increase in PI hydrolysis [3, 14]: no effect | effect on the NE-induced increase in cAMP formation [5, 14]: inhibits | effect on APP synthesis [6]: decrease or inhibit | effect on basal APP protein levels ([1]; propranolol 50 μM on its own): no significant effect | effect on the NE-stimulated increase in APP holoprotein [1, 14]: inhibited | effect on the NE- or isoproterenol-stimulated increase in APP mRNA ([4]; propranolol 50 μM): to baseline levels; also recorded: significantly inhibited; also recorded: abolished

Oc1ccc(C=Cc2cc(O)cc(O)c2)cc1 [resveratrol]
levels of cellular and amyloidogenic APP holoprotein ([1]; 1 h): decreased levels; also recorded: decreases | secretion of soluble APPs [2, 13]: increase; also recorded: promotes
